The source made the active and inactive calls. The rule behind the calls is not given here.
Key:
Estrogen receptor beta [1] = biological target: T1, Estrogen receptor beta (Homo sapiens, UniProt Q92731); experiment: Antagonist activity at human ERbeta ligand binding domain expressed in Escherichia coli BL21(DE3) cells assessed as inhibition of coactivator 53-protein binding by fluorescence assay
[2] = biological target: T2, Polyunsaturated fatty acid 5-lipoxygenase (Homo sapiens, UniProt P09917); experiment: Inhibition of LOX5 in human whole blood assessed as inhibition of conversion of arachidonic acid to leukotriene; assay type: tissue-based
T2 sequence (P09917 whole entry): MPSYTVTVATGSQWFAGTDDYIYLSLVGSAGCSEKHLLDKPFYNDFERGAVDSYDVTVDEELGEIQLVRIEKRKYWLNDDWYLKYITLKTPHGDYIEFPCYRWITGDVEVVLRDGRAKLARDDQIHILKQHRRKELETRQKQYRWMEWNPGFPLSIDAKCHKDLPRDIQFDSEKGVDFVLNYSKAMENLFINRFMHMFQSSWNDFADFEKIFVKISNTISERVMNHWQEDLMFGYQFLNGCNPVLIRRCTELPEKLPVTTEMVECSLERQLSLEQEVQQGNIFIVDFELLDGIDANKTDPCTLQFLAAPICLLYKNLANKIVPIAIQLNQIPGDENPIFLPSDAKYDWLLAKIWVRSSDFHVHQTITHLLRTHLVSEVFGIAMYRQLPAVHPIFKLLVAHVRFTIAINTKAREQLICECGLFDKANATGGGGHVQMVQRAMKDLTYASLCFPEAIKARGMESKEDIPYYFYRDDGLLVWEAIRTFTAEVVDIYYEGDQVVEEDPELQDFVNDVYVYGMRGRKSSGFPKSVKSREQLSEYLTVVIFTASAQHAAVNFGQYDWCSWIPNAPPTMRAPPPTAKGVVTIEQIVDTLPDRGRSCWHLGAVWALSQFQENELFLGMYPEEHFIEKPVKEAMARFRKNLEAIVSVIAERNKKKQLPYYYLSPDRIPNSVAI

Estrogen receptor beta [3] = biological target: T1, Estrogen receptor beta; experiment: Binding affinity to human ERbeta ligand binding domain expressed in Escherichia coli BL21(DE3) cells assessed as recruitment of fluorescently labeled nuclear coactivator Scr1 after 1 hr by fluorescence polarization assay
Estrogen receptor beta [4] = biological target: T1, Estrogen receptor beta; experiment: Agonist activity at human ERbeta ligand binding domain expressed in Escherichia coli BL21(DE3) cells assessed as induction of coactivator 53-protein binding by fluorescence assay
Estrogen receptor [5] = biological target: T3, Estrogen receptor (Homo sapiens, UniProt P03372)
T3 sequence (P03372 whole entry): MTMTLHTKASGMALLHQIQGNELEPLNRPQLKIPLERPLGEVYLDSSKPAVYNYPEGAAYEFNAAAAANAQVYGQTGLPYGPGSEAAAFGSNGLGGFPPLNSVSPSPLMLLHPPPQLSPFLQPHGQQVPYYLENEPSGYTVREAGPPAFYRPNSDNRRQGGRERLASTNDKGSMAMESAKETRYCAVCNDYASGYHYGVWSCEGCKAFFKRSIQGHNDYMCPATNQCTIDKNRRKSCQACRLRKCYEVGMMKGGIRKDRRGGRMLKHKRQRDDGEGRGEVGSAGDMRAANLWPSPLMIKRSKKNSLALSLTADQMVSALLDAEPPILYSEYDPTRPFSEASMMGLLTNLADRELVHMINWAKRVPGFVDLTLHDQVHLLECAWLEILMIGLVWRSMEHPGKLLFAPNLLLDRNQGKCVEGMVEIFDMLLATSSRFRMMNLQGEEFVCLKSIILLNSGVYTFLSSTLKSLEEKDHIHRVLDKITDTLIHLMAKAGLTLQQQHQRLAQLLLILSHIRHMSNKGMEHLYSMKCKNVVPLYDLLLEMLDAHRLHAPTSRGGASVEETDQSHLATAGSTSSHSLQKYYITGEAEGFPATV

Estrogen receptor [6] = biological target: T3, Estrogen receptor; experiment: biochemical
Description: Binding affinity to human ERalpha ligand binding domain expressed in Escherichia coli BL21(DE3) cells assessed as recruitment of fluorescently labeled nuclear coactivator Scr1 after 1 hr by fluorescence polarization assay

T1 sequence (Q92731 whole entry, the tested form may be a part): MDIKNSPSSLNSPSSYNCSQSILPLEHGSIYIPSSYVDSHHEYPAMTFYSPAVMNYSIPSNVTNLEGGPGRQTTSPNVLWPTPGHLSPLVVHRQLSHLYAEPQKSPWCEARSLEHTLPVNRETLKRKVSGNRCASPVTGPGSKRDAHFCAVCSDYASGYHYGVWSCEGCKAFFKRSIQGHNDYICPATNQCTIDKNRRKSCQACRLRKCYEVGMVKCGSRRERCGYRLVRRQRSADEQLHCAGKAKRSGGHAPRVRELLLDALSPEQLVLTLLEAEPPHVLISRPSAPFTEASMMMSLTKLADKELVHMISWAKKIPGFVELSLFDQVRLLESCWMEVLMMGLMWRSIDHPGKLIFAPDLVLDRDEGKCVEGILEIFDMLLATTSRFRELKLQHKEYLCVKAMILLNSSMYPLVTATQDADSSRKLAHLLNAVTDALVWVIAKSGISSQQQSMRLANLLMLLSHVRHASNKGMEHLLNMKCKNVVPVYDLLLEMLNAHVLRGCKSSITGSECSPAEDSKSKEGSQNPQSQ

| Compound | inhibition (Estrogen receptor beta [1]) | IC50 [2] | further results |
| --- | --- | --- | --- |
| O=S(=O)(c1ccc2ccccc2c1)N1CCc2cc(O)ccc2[C@H]1c1ccc(OCCN2CCCC2)cc1 | Active | – | – |
| O=S(=O)(c1ccccc1)N1CCc2cc(O)ccc2[C@H]1c1ccc(OCCN2CCCC2)cc1 | Active | – | – |
| CN(C)CCNC(=O)c1ccc(COc2ccc3ccccc3c2)cc1 | – | 3 µM | – |
| O=C(N1CCc2cc(O)ccc2[C@H]1c1ccc(OCCN2CCCC2)cc1)C(F)(F)F | Active | – | – |
| O=C(N1CCc2cc(O)ccc2C1)C(F)(F)F | – | – | EC50 (Estrogen receptor beta [3]): 4.6 µM; Activity (Estrogen receptor beta [4]): Active; Ki (Estrogen receptor [5]): 0.002 µM; EC50 (Estrogen receptor [6]): 0.275 µM |
| c1ccc(COc2ccc3ccccc3c2)cc1 | – | 9.5 µM | – |

Source: ChEMBL document CHEMBL1212723, “Bioactivity-guided mapping and navigation of chemical space” (Nat Chem Biol, 2009)
